Reference: patent publication US8143303B2, “Carbazole derivatives as functional 5-HT6 ligands” (Suven Life Sciences Limited, priority 2005, dated 2012)

Tests used:
Human 5-HT6 receptor = molecular target: T1, Human 5-HT6 receptor (Homo sapiens, UniProt P50406); experiment: Nova Screen binding assay for human 5-HT6 receptor ([3H]LSD); conditions: Human recombinant receptor expressed in HEK-293 cells; [3H]LSD 1.5 nM; 60 minutes at 37° C.
T1 construct: host or cells: HEK-293
Description: Nova Screen Binding Assay for Human 5-HT6 Receptor
Pharmacological data Compounds can be tested according to the following the procedures.
Receptor source: Human recombinant expressed in HEK-293 cells
Radioligand: [^3H]LSD (60-80 Ci/mmol)
Final ligand concentration—[1.5 nM]
Non-specific determinant: Methiothepin mesylate—[0.1 μM]
Reference compound: Methiothepin mesylate
Positive control: Methiothepin mesylate
Incubation conditions: Reactions were carried out in 50 mM TRIS HCl (pH 7.4) containing 10 mM MgCl2, 0.5 mM EDTA for 60 minutes at 37° C. The reaction was terminated by rapid vacuum filtration onto glass fiber filters. Radioactivity trapped onto the filters was determined and compared to control values in order to ascertain any interactions of test compound(s) with the cloned serotonin-5HT6 binding site.
Mol. Pharmacol. (43): 320-327 (1993).

T1 sequence (P50406 whole entry): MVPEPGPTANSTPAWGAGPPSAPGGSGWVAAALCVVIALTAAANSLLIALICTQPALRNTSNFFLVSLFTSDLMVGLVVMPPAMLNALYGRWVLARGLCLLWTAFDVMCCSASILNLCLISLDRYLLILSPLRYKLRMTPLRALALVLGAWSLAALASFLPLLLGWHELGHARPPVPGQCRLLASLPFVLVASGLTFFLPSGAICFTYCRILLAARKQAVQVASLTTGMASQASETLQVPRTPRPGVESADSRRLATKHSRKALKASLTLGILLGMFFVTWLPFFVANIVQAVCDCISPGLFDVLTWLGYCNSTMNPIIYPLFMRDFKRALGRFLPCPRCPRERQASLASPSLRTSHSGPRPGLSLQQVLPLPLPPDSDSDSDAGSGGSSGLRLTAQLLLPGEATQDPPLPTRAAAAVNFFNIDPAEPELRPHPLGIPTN

Row | Compound | melting point [°C] | IC50 (Human 5-HT6 receptor) [nM] | Ki (Human 5-HT6 receptor) [nM]
1 | CC(C)c1ccc(S(=O)(=O)n2c3c(c4cc(Br)ccc42)CC(N(C)C)CC3)cc1 (stereo not drawn) | 152.75 to 154.98 |  | 
2 | CN(C)C1CCc2c(c3cc(Cl)ccc3n2S(=O)(=O)c2ccccc2)C1 (stereo not drawn) | 150 to 155 |  | 
3 | Cc1ccc(S(=O)(=O)n2c3c(c4cc(Cl)ccc42)CC(N(C)C)CC3)cc1 (stereo not drawn) | 130 to 138 |  | 
4 | CN(C)C1CCc2c(c3ccccc3n2S(=O)(=O)c2ccc(F)cc2)C1 (stereo not drawn) [Example 3, 9-[(4-Fluorobenzenesulphonyl)-2,3,4,9-tetrahydro-1H-carbazol-3-yl]dimethylamine] | 130.2 to 132.8 | 27 | 12.5
5 | CN(C)C1CCc2c(c3cc(Br)ccc3n2S(=O)(=O)c2ccc(F)cc2)C1 (stereo not drawn) [Example 11, [6-Bromo-9-(4-fluorobenzenesulphonyl)-2,3,4,9-tetrahydro-1H-carbazol-3-yl]dimethylamine] | 158.1 to 160 | 20.2 | 9.42
6 | CN(C)C1CCc2c(c3cc(Br)ccc3n2S(=O)(=O)c2ccccc2Br)C1 (stereo not drawn) [Example 14, [6-Bromo-9-(2-bromobenzenesulphonyl)-2,3,4,9-tetrahydro-1H-carbazol-3-yl]dimethylamine] | 158.78 to 161.04 |  | 
7 | CN(C)C1CCc2c(c3cc(Cl)ccc3n2S(=O)(=O)c2ccc(F)cc2)C1 (stereo not drawn) [Example 20, [6-Chloro-9-(4-fluorobenzenesulfonyl)-2,3,4,9-tetrahydro-1H-carbazol-3-yl]dimethylamine] | 150 to 155 |  | 
8 | CN(C)C1CCc2c(c3cc(F)ccc3n2S(=O)(=O)c2ccccc2)C1 (stereo not drawn) [Example 21, [6-Fluoro-9-benzenesulfonyl-2,3,4,9-tetrahydro-1H-carbazol-3-yl]dimethylamine] | 127.7 to 130.3 | 30.5 | 15.7
9 | Cc1ccc(S(=O)(=O)n2c3c(c4cc(F)ccc42)CC(N(C)C)CC3)cc1 (stereo not drawn) [Example 22, [6-Fluoro-9-(4-methylbenzenesulfonyl)-2,3,4,9-tetrahydro-1H-carbazol-3-yl]dimethylamine] | 148.8 to 153 | 64.3 | 32.4
10 | CC(C)c1ccc(S(=O)(=O)n2c3c(c4cc(F)ccc42)CC(N(C)C)CC3)cc1 (stereo not drawn) [Example 23, [6-Fluoro-9-(4-isopropylbenzenesulfonyl)-2,3,4,9-tetrahydro-1H-carbazol-3-yl]dimethylamine] | 95.4 to 103.8 | 33.4 | 15.5
11 | CN(C)C1CCc2c(c3cc(F)ccc3n2S(=O)(=O)c2ccc(Br)cc2)C1 (stereo not drawn) [Example 24, [6-Fluoro-9-(4-bromobenzenesulfonyl)-2,3,4,9-tetrahydro-1H-carbazol-3-yl]dimethylamine] | 170.6 to 174.1 | 99.7 | 43.5
12 | CN(C)C1CCc2c(c3cc(F)ccc3n2S(=O)(=O)c2ccc(F)cc2)C1 (stereo not drawn) [Example 25, [6-Fluoro-9-(4-fluorobenzenesulfonyl)-2,3,4,9-tetrahydro-1H-carbazol-3-yl]dimethylamine] | 147.5 to 151.2 | 63.5 | 32.8
13 | COc1ccc2c(c1)c1c(n2S(=O)(=O)c2ccccc2)CCC(N(C)C)C1 (stereo not drawn) [Example 26, [6-Methoxy-9-benzenesulfonyl-2,3,4,9-tetrahydro-1H-carbazol-3-yl]dimethylamine] |  | 10.8 | 5.44
14 | COc1ccc2c(c1)c1c(n2S(=O)(=O)c2ccc(C)cc2)CCC(N(C)C)C1 (stereo not drawn) [Example 27, [6-Methoxy-9-(4-methylbenzenesulfonyl)-2,3,4,9-tetrahydro-1H-carbazol-3-yl]dimethylamine] | 131.8 to 140 | 11.7 | 5.89
15 | COc1ccc2c(c1)c1c(n2S(=O)(=O)c2ccc(Br)cc2)CCC(N(C)C)C1 (stereo not drawn) [Example 29, [6-Methoxy-9-(4-bromobenzenesulfonyl)-2,3,4,9-tetrahydro-1H-carbazol-3-yl]dimethylamine] | 173.2 to 173.8 | 28.9 | 15.1
16 | COc1ccc2c(c1)c1c(n2S(=O)(=O)c2ccc(F)cc2)CCC(N(C)C)C1 (stereo not drawn) [Example 30, [6-Methoxy-9-(4-fluorobenzenesulfonyl)-2,3,4,9-tetrahydro-1H-carbazol-3-yl]dimethylamine] | 160.7 to 163.4 | 52.3 | 24.3
17 | COc1ccc2c(c1)c1c(n2S(=O)(=O)c2cccc(C(F)(F)F)c2)CCC(N(C)C)C1 (stereo not drawn) [Example 31, [6-Methoxy-9-(3-trifluoromethylbenzenesulfonyl)-2,3,4,9-tetrahydro-1H-carbazol-3-yl]dimethylamine] | 144 to 146 |  | 
18 | CSc1ccc2c(c1)c1c(n2S(=O)(=O)c2ccc(C)cc2)CCC(N(C)C)C1 (stereo not drawn) [Example 33, [6-Methylthio-9-(4-methylbenzenesulfonyl)-2,3,4,9-tetrahydro-1H-carbazol-3-yl]dimethylamine] | 105.2 to 115 | 26.1 | 13.8
19 | CSc1ccc2c(c1)c1c(n2S(=O)(=O)c2ccc(F)cc2)CCC(N(C)C)C1 (stereo not drawn) [Example 35] | 148.9 to 156.1 | 47.1 | 24.9
20 | CN(C)C1CCc2c(c3cc(Br)ccc3n2S(=O)(=O)c2cccc(Cl)c2Cl)C1 (stereo not drawn) [Example 39, [6-Bromo-9-(2,3-dichlorobenzenesulphonyl)-2,3,4,9-tetrahydro-1H-carbazol-3-yl]dimethylamine] | 189 to 192 |  | 
